Like-named read-outs stand apart in the source and are kept apart here. One block for each compound: values may come before it.
Assays:
CD4^+ T lymphocytes = test: Proliferation of anti-CD3 activated CD4+ T lymphocytes; format: cell-based, BALB/c mouse
From the text: (§1) Growth curves of lymph node T cells depleted of antigen-presenting cells (FIG. 17A) with and without 10^-6 M retinol at 2×10^5 and 5×10^4 cells/well. (FIG. 17B) Dose-responses elicited by different retinoids in cultures of lymph node T cells depleted of antigen-presenting cells. Also shown are the growth curves of CD4^+ (FIG. 17C) and CD8^+ T lymphocytes (FIG. 17D) in the presence of either retinol, 14HRR, human serum or in their absence.
(§2) T lymphocytes, purified as described, 5×10^4 /well, were activated with immobilized anti-CD3 antibody in ITLB medium. The indicated amounts of retinoids or human serum were added at initiation of cultures. […] 14HRR was added every 12 hours. DNA synthesis was measured by a 4 hour pulse with tritiated thymidine. SDs were ≤17%.
(§3) Mature T cells were obtained from pooled intestinal, axillary, inguinal and submandibular lymph nodes of 4 to 10-week-old BALB/c mice. To fractionate cells into CD4 and CD8 subsets and at the same time remove APC, a combination of adherence and complement lysis was used as follows:
(§4) The cell suspension in a volume of 2 ml was applied to a nylon wool column (40) (0.6 g of washed nylon fibers in the barrel of a 10 ml syringe) and incubated at 37° C. for 40 min. […] The success of the enrichment procedures was monitored cytofluorimetrically using FITC-conjugated anti-CD8 and PE-conjugated anti-CD4. […]

CD8^+ T lymphocytes = test: Proliferation of anti-CD3 plus IL-2 activated CD8+ T lymphocytes; format: cell-based, BALB/c mouse
From the text: as §1, §2, §3, §4

[1] = test system: immediate early genes in fibroblasts; test: Expression of immediate early genes in fibroblasts; format: cell-based; conditions: work to be published elsewhere
Chemical stability of P3 = format: physicochemical
SLA = test: Retinol metabolism, SLA; format: in vitro ADME, mouse
Experimental: (§5) Legend: 2.5×10^6 cells were grown overnight in 5 ml RPMI/10% FBS. The FBS was preincubated at room temperature with 14.4 uCi [^3 H] retinol (NEN) for 4h. The cell pellet was washed twice with PBS. The retinoid were extracted according to MClean et al. 90 and separated on an analytical c18 reverse phase column according to FIG. 7. The DPM were determined using an on-line scintillation counter.

RPMI = test: Retinol metabolism, RPMI (Leukemia ALL); format: in vitro ADME
Experimental: as §5

N-tera2 = test: Retinol metabolism, N-tera2; format: in vitro ADME, human
Experimental: as §5

[2] = cited from earlier work
SKL3 = test: Retinol metabolism, SKL3; format: in vitro ADME, human
Experimental: as §5

Ket = test: Retinol metabolism, Ket; format: in vitro ADME, human
Experimental: as §5

Hela = test: Retinol metabolism, Hela; format: in vitro ADME, human
Experimental: as §5

ERLD = test: Retinol metabolism, ERLD; format: in vitro ADME
Experimental: as §5

Compound: CC(C=CC=C(C)C(O)CO)=CC=C1C(C)=CCCC1(C)C (stereo not drawn) [14HRR, 14-hydroxy-4,14-retro-retinol]
- response of CD4+ subset to anti-CD3 (CD4^+ T lymphocytes): responded to the activating signal
- response of CD8+ subset to anti-CD3 plus IL-2 (CD8^+ T lymphocytes): responded to the activating signal
- expression of immediate early genes [1]: facilitates the expression of immediate early genes in fibroblasts
- chemical stability (Chemical stability of P3): unstable in chloroform and does not survive an acid extraction step

- Ester (% of taken up retinol) (SLA): 9%
- P3 (% of taken up retinol) (SLA): 3%
- Total cts. (SLA): 6.1 × 10^5 cts.
- Ester (% of taken up retinol) (RPMI): 38%
- P3 (% of taken up retinol) (RPMI): 2%
- Total cts. (RPMI): 1.2 × 10^5 cts.
- Ester (% of taken up retinol) (N-tera2): 97%
- P3 (% of taken up retinol) (N-tera2): 0.4%
- Total cts. (N-tera2): 13.5 × 10^5 cts.
- Ester (% of taken up retinol) (SKL3): 24%
- P3 (% of taken up retinol) (SKL3): 2%
- Total cts. (SKL3): 1.6 × 10^5 cts.
- Ester (% of taken up retinol) (Ket): 41%
- P3 (% of taken up retinol) (Ket): 3%
- Total cts. (Ket): 4.6 × 10^5 cts.
- Ester (% of taken up retinol) (Hela): 20%
- P3 (% of taken up retinol) (Hela): 3%
- Total cts. (Hela): 1.0 × 10^5 cts.
- Ester (% of taken up retinol) (ERLD): 20%
- P3 (% of taken up retinol) (ERLD): 9%
- Total cts. (ERLD): 2.8 × 10^5 cts.
Compound: CC1=C(/C=C/C(C)=C/C=C/C(C)=C/CO)C(C)(C)CCC1 [retinol, all-trans retinol]
- half-life ([2]; serum-free cell culture (ref. 32)): < 24 h
- half-life ([2]; serum-free tissue culture medium, estimated (ref. 32)): ~24 h
